Tested on: intact mouse islets
Test: Insulin release from intact mouse islets (ELISA)
Assay type: cell-based
Settings: 100 μM compound, 60 min incubation
Description: Intact pancreatic islets were isolated from fed NMRI mice (15-18 g) as previously described (Fuhlendorff et al., Diabetes, Vol. 47 (3) pp. 345-351, 1998). Insulin release was measured from groups of 10 size-matched islets, cultured overnight in RPMI-1640 tissue culture medium containing 1% GlutaMAX™ (Gibco BRL),1% penicillin/streptomycin, 7.5% NaHCO3 and 10% new-born calf serum. The islets were washed for 20 minutes in Krebs Ringer Buffer consisting of 115 mM NaCl, 4.7 mM KCl, 2.6 mM CaCl2, 1.2 mM KH2PO4, 1.2 mM MgSO4, 20 mM HEPES, 2 mM glutamine, 5 mM NaHCO3, 0.2% human serum albumin and 1% penicillin/streptomycin) and 2.5 mM, 5 mM or 10 mM D-glucose. Afterwashing, the islet were incubated for one hour at +37° C. in Krebs Ringer Buffer containing the test compound at 100 μM and glucose at 2.5 mM, 5 mM or 10 mM. After the one-hour incubation, the medium was aspirated and kept at −20° C. until assayed for insulin using the following ELISA technique. Immuno 96 well paltes (MaxiSorPTM, NUNC, Denmark) were coated over night at 4° C. with a rabbit-anti-guinea pig-lgG (Dako) antibody diluted 1:1000 in 0.1 M NaHCO3 (pH 9.8). After washing 4 times in 0.15 M NaCl and 0.005% Tween-20 the plates were incubated with guinea pig-anti-insulin diluted in phosphate buffered saline (incubation buffer; pH 7.4) containing 0.1% Tween-20 and 0.5% human serum albumin over night. After washing the sambles were incubated for 1.5 h with relevant samples and peroxidase-insulin (Sigma) diluted 1:10000 in PBS-DIL. The samples we-were then washed and developed with TMBPlus-substrated as described by the manufacture (KEM EN TEC, Denmark). The amount of insulin was quantified from a standard curve after reading the samples at 450 nm.
Elevating the external glucose concentration from 2.5 mM to 5 mM was not associated with an increase in insulin release whereas a 90% stimulation was observed following application of 10 mM glucose (P<0.05; n=8).

## COc1cccc(C(CC2=NCCN2)c2ccccn2)c1 (single isomer, unassigned; (-)) [compound (Ex 2), (−)-2-(2-(4,5-Dihydro-1H-imidazol-2-yl)-1-(3-methoxyphenyl)ethyl)pyridine]
2.5 mM glucose
  effect on insulin release: does not affect insulin release
5 mM glucose
  effect on insulin release: does not affect insulin release
10 mM glucose, P<0.01, n=8
  stimulation of insulin secretion: 220%

— patent US20020132812A1, “Oral hypoglycaemic agents” (priority 2000, published 2002)
